Experimental data: paper PMC11876601 (Molecular Systems Biology, 2025)

System: 13 PDAC cell lines
Experiment: Phenotypic drug combination viability screen (ATPlite, 72 h), cell line panel
Format: cell-based, human
Details: of 13 cell lines; Bliss model

With `C[C@]12O[C@H](C[C@]1(O)CO)n1c3ccccc3c3c4c(c5c6ccccc6n2c5c31)CNC4=O` [Lestaurtinib] the “number of cell lines with synergy with GEM” value was 5 cell lines.
